Laboratory results published in patent US11147272B2, “Pyridone compounds and agricultural and horticultural fungicides comprising the same as active ingredients” (MITSUI CHEMICALS AGRO, INC., priority 2017, dated 2021).
Read-outs that look alike come from different tables or passages of the source.

Columns and labels:
[1] = tested on: Plasmopara viticola; experiment: Test Example G: Downy mildew on vine; details: Plasmopara viticola, topical
[2] = tested on: Botrytis cinerea; experiment: Test Example B: Gray mold on tomato; details: Botrytis cinerea, in Solanum lycopersicum, topical
[3] = tested on: Colletotrichum orbiculare; experiment: Test Example H: Anthracnose on cucumber; details: Colletotrichum orbiculare, in Cucumis sativus, topical
[4] = tested on: Blumeria graminis f. sp. hordei; experiment: Test Example D: Powdery mildew on barley; details: Blumeria graminis, in Hordeum vulgare, topical
[5] = tested on: Puccinia recondita; experiment: Test Example E: Brown rust on wheat; assay type: in vivo; details: Puccinia recondita, topical, Brown rust on wheat
[6] = tested on: Magnaporthe grisea; experiment: whole plant or invertebrate; assay type: in vivo; details: Pyricularia oryzae, in Oryza sativa
[7] = tested on: Phytophthora infestans; experiment: whole plant or invertebrate; assay type: in vivo; details: Phytophthora infestans, in Solanum lycopersicum, topical
[8] = tested on: Alternaia brassicicola; experiment: Test Example C: Alternaria sooty spot on cabbage; assay type: in vivo; details: Brassica oleracea, topical, Alternaria sooty spot on cabbage
From the text: Seeds of a test plant (cabbage variety: Shikidori) were planted and cultivated until the cotyledons extended.
<Control Value> Control value=100{1−(n/3)}

[9] = read-out: Test G control value class
[10] = read-out: Test B control value class
[11] = read-out: Test H control value class
[12] = read-out: Test D control value class
[13] = class of control value, read-out: Test E control value class
[14] = read-out: Test A control value class
[15] = read-out: Test F control value class
[16] = class of control value, read-out: Test C control value class
[17] = 168 h, read-out: Test G control value
[18] = 144 h, read-out: Test H control value
[19] = control value class, read-out: Test E control value
[20] = control value class, read-out: Test C control value

Row | SMILES | pest or weed control at 250 ppm [1, 9] | pest or weed control at 250 µg/mL [2, 10] | pest or weed control at 250 ppm [3, 11] | pest or weed control at 250 µg/mL [4, 12] | pest or weed control at 250 µg/mL [5, 13] | pest or weed control at 250 µg/mL [6, 14] | pest or weed control at 250 µg/mL [7, 15] | pest or weed control at 250 µg/mL [8, 16] | pest or weed control at 250 ppm [1, 17] | pest or weed control at 250 µg/mL ([2]; read-out: Test B control value) | pest or weed control at 250 ppm [3, 18] | pest or weed control at 250 µg/mL ([4]; read-out: Test D control value) | pest or weed control at 250 µg/mL [5, 19] | pest or weed control at 250 µg/mL ([6]; read-out: Test A control value) | pest or weed control at 250 µg/mL ([7]; read-out: Test F control value) | pest or weed control at 250 µg/mL [8, 20]
1 | CCC(O)c1cc(Cl)c(=O)n(CC)c1-c1c(F)cccc1F (stereo not shown) [Compound No. 24, 3-chloro-6-(2,6-difluorophenyl)-1-ethyl-5-(1-hydroxypropyl)pyridin-2(1H)-one] | < 50% | > 50% | > 50% | > 50% | > 50% | > 50% | < 50% | > 50% |  |  |  |  |  |  |  | 
2 | CCC(OC)c1cc(Cl)c(=O)n(CC)c1-c1c(F)cccc1F (stereo not shown) [Compound No. 25, 3-chloro-6-(2,6-difluorophenyl)-1-ethyl-5-(1-methoxypropyl)pyridin-2(1H)-one] | > 50% | > 50% | > 50% | > 50% | > 50% | > 50% | < 50% | > 50% |  |  |  |  |  |  |  | 
3 | CCC(=O)c1cc(Cl)c(=O)n(CC)c1-c1c(F)cccc1F [Compound No. 26, 3-chloro-6-(2,6-difluorophenyl)-1-ethyl-5-propionylpyridin-2(1H)-one] | > 50% | > 50% | > 50% | > 50% | > 50% | > 50% | < 50% | > 50% |  |  |  |  |  |  |  | 
4 | CCn1c(-c2c(F)cccc2F)c(C(C)(O)CC)cc(Cl)c1=O (stereo not shown) [Compound No. 27, 3-chloro-6-(2,6-difluorophenyl)-1-ethyl-5-(2-hydroxybutan-2-yl)pyridin-2(1H)-one] | > 50% | > 50% | > 50% | > 50% | > 50% | > 50% | < 50% | > 50% |  |  |  |  |  |  |  | 
5 | CCn1c(-c2c(F)cccc2F)c(C(C)(CC)OC)cc(Cl)c1=O (stereo not shown) [Compound No. 29, 3-chloro-6-(2,6-difluorophenyl)-1-ethyl-5-(2-methoxybutan-2-yl)pyridin-2(1H)-one] | > 50% | > 50% | > 50% | > 50% | > 50% | > 50% | < 50% | > 50% |  |  |  |  |  |  |  | 
6 | CCn1c(-c2c(F)cccc2F)c(C(C)(F)CC)cc(Cl)c1=O (stereo not shown) [Compound No. 30, 3-chloro-6-(2,6-difluorophenyl)-1-ethyl-5-(2-fluorobutan-2-yl)pyridin-2(1H)-one] | > 50% | > 50% | > 50% | > 50% | > 50% | > 50% | < 50% | > 50% |  |  |  |  |  |  |  | 
7 | CCn1c(-c2c(F)cccc2F)c(C(O)C(C)C)cc(Cl)c1=O (stereo not shown) [Compound No. 53, 3-chloro-6-(2,6-difluorophenyl)-1-ethyl-5-(1-hydroxy-2-methylpropyl)pyridin-2(1H)-one] | > 50% | > 50% | > 50% | > 50% | > 50% | > 50% | < 50% | > 50% |  |  |  |  |  |  |  | 
8 | CCn1c(-c2c(F)cc(F)cc2F)c(CN(C)OC)cc(Cl)c1=O [Compound No. 89, 3-chloro-1-ethyl-5-((methoxy(methyl)amino)methyl)-6-(2,4,6-trifluorophenyl)pyridin-2(1H)-one] | < 50% | > 50% | > 50% | > 50% | > 50% | > 50% | < 50% | > 50% |  |  |  |  |  |  |  | 
9 | CCOc1cc(F)c(-c2c(CN(C)OC)cc(Cl)c(=O)n2CC)c(F)c1 [Compound No. 93, 3-chloro-6-(4-ethoxy-2,6-difluorophenyl)-1-ethyl-5-((methoxy(methyl)amino)methyl)pyridin-2(1H)-one] | > 50% | > 50% | > 50% | > 50% | > 50% | > 50% | < 50% | > 50% |  |  |  |  |  |  |  | 
10 | CCn1c(-c2ccc(F)cc2Cl)c(CC(C)C)ccc1=O [Compound No. 98, 6-(2-chloro-4-fluorophenyl)-1-ethyl-5-isobutylpyridin-2(1H)-one] | < 50% | > 50% | < 50% | > 50% | > 50% | > 50% | < 50% | > 50% |  |  |  |  |  |  |  | 
11 | CCn1c(-c2ccc(F)cc2Cl)c(CC(C)C)cc(Cl)c1=O [Compound No. 99, 3-chloro-6-(2-chloro-4-fluorophenyl)-1-ethyl-5-isobutylpyridin-2(1H)-one] | > 50% | > 50% | > 50% | > 50% | > 50% | > 50% | > 50% | > 50% |  |  |  |  |  |  |  | 
12 | CCn1c(-c2c(F)cccc2F)c(C(C)(O)C(C)C)cc(Cl)c1=O (stereo not shown) [Compound No. 183, 3-chloro-6-(2,6-difluorophenyl)-1-ethyl-5-(2-hydroxy-3-methylbutan-2-yl)pyridin-2(1H)-one] | > 50% | > 50% | > 50% | > 50% | > 50% | > 50% | > 50% | > 50% |  |  |  |  |  |  |  | 
13 | CCn1c(-c2c(F)cccc2F)c(C(C)(OC)C(C)C)cc(Cl)c1=O (stereo not shown) [Compound No. 187, 3-chloro-6-(2,6-difluorophenyl)-1-ethyl-5-(2-methoxy-3-methylbutan-2-yl)pyridin-2(1H)-one] |  |  |  |  |  |  |  |  | > 50% | > 50% | > 50% | > 50% | > 50% | > 50% | < 50% | > 50%
14 | CCn1c(-c2c(F)cc(F)cc2F)c(C=O)cc(Cl)c1=O [Compound No. 289, 5-chloro-1-ethyl-6-oxo-2-(2,4,6-trifluorophenyl)-1,6-dihydropyridine-3-carbaldehyde] |  |  |  |  |  |  |  |  | < 50% | > 50% | > 50% | < 50% | > 50% | < 50% | < 50% | > 50%
15 | CCn1c(-c2ccc(F)cc2Cl)c(C=C(C)C)cc(Cl)c1=O [Compound No. 300, 3-chloro-6-(2-chloro-4-fluorophenyl)-1-ethyl-5-(2-methyl-1-propenyl)pyridin-2(1H)-one] |  |  |  |  |  |  |  |  | < 50% | > 50% | > 50% | > 50% | > 50% | > 50% | < 50% | > 50%
16 | CCCc1cc(Br)c(=O)n(C)c1-c1ccc(F)cc1Cl [Compound No. 333, 3-bromo-6-(2-chloro-4-fluorophenyl)-1-methyl-5-propylpyridin-2(1H)-one] |  |  |  |  |  |  |  |  | < 50% | > 50% | > 50% | < 50% | > 50% | > 50% | < 50% | > 50%
17 | CCCc1cc(C)c(=O)n(C)c1-c1ccc(F)cc1Cl [Compound No. 339, 6-(2-chloro-4-fluorophenyl)-1,3-dimethyl-5-propylpyridin-2(1H)-one] |  |  |  |  |  |  |  |  | > 50% | > 50% | > 50% | > 50% | > 50% | > 50% | < 50% | < 50%
